Patent publication US12653899B2, “Multi-targeted, tunable, sustained delivery of payloads to charged avascular tissues” (Massachusetts Institute of Technology, priority 2019, dated 2026)

Test system: human ankle cartilage explants treated with IL-1β
Experiment: IL-1β cytokine challenge model, sGAG biosynthesis rate in human ankle cartilage explants
Format: cell-based
Conditions: for rescue of the biosynthesis loss caused by human IL-1β: days 6-8
Description: Cartilage was harvested from the ankles of a donor (Collins Grade 1) and a donor (Collins Grade 1). Cartilage explants were equilibrated in culture media for 2 days after harvest. […] These were cut down to 1 mm thickness and allowed to equilibrate for a further 2 days before experiments were set up. Human IL-1β was used to induce osteoarthritis-like changes in cartilage. Experiments were set up to identify IL-1β doses at which 40 nM of free IGF-1 can rescue the IL-1β induced biosynthesis loss in cartilage. A dose response experiment in which single doses of (+9GFP)-(GGGGS)4-(IGF-1) (SEQ ID NO: 7) and (+9GFP)-(EAAAK)3-(IGF-1) (SEQ ID NO: 8) were added along with 100 pg/ml human IL-1β was also set up.
Experimental groups (N=8 to 10 cartilage explants in each group): Untreated control (Ctrl in FIG. 6A and FIG. 6B), 10 pg/mL human IL-1β (10 pg/ml IL-1b in FIG. 6A and FIG. 6B), 10 pg/mL human IL-1β+40 nM IGF-1 (10 pg/ml IL-1b+40 nM IGF-1 in FIG. 6A and FIG. 6B), 100 pg/mL human IL-1β (100 pg/ml IL-1b in FIG. 6A and FIG. 6B), 100 pg/mL human IL-1β+40 nM IGF-1 (100 pg/ml IL-1b+40 nM IGF-1 in FIG. 6A and FIG. 6B), 500 pg/mL human IL-1β (500 pg/ml IL-1b in FIG. 6A and […]), 500 pg/mL human IL-1β+40 nM IGF-1 (500 pg/ml IL-1b+40 nM IGF-1 in FIG. 6A and FIG. 6B), 1000 pg/mL human IL-1β (1 ng/ml IL-1b in FIG. 6A and FIG. 6B), 1000 pg/mL human IL-1β+40 nM IGF-1 (1 ng/ml IL-1b+40 nM IGF-1 in FIG. 6A and FIG. 6B). Media changes were performed every 2 days and the experiment was terminated after 8 days.
Chondrocyte biosynthesis rate (primarily aggrecan synthesis) was measured between days 6 and 8 of the experiment using a 35S-sulfate radiolabel. Statistics: 1-way ANOVA with post-hoc Tukey's HSD test.
This experiment was set up with cartilage explants from the donor ankle. Experimental groups (N=8 to 10 cartilage explants in each group): Untreated control (Ctrl in FIG. 6C), Continuous human IL-1β control (100 pg/ml dose added with every media change) (IL-1b in FIG. 6C), Continuous human IL-1β+continuous free IGF-1 control (100 pg/ml human IL-1β and 40 nM free IGF-1 dose added with every media change) (IL-1b+IGF1 FIG. 6C), Continuous human IL-1β+(+9GFP)-(GGGGS)4-(IGF-1) (SEQ ID NO: 7) 500 nM single dose (100 pg/ml human IL-1β added with every media change; Single 500 nM fusion protein dose added on Day 0) (IL-1b+0.5 μM Flex-1 in FIG. 6C), Continuous human IL-1β+(+9GFP)-(GGGGS)4-(IGF-1) (SEQ ID NO: 7) 1 μM single dose (100 pg/ml human IL-1β added with every media change; Single 1 μM fusion protein dose added on Day 0) (IL-1b+1 μM Flex-1 in FIG. 6C), Continuous human IL-1β+(+9GFP)-(EAAAK)3-(IGF-1) (SEQ ID NO: 8) 500 nM single dose (100 pg/ml human IL-1β added with every media change; Single 500 nM fusion protein dose added on Day 0), Continuous human IL-1β+(+9GFP)-(EAAAK)3-(IGF-1) (SEQ ID NO: 8) 1 μM single dose (100 pg/ml human IL-1β added with every media change; Single 1 μM fusion protein dose added on Day 0) (IL-1b+1 μM Rig-1 in FIG. 6C).
Preliminary dose response experiments were performed to test the effects of human IL-1β (PeproTech, Rocky Hill, NJ) on human ankle cartilage. Ankle cartilage explants from two different donors (equilibrated in culture medium post-harvest) were cultured in serum-free low glucose medium (same composition as equilibration medium) and treated with continuous IL-1β doses ranging from 10 pg/ml to 1 ng/ml for 8 days. The experiments also included groups of explants that were treated with 300 ng/ml free IGF-1 at each dose level of IL-1β. Based on the results of these experiments, 100 pg/ml IL-1β was chosen as the dose used for the fusion protein dose response experiments. In these experiments, ankle and knee cartilage explants (equilibrated in culture medium post-harvest) were treated continuously with IL-1β and received single doses of fusion proteins (ranging from 39.2 nM to 2 μM) at the start of the experiments. […]

[1] = single 2 μM dose, 100 pg/ml IL-1β, 10-day experiment (FIG. 15B)

For “(+9GFP)-(EAAAK)3-(IGF-1): fusion protein of +9 GFP and human IGF-1 with rigid (EAAAK)3 linker, SEQ ID NO: 8”, the “rescue of the biosynthesis loss caused by human IL-1β” value (both dose levels (single 500 nM and 1 μM), 100 pg/ml human IL-1β, donor) was “able to rescue”, the “rescue of the loss of biosynthesis caused by IL-1β” value (from here on “rescue of the loss … by IL-1β”) (single 1 μM dose, 100 pg/ml IL-1β, 7-day experiment (FIG. 15A)) was “partial rescue” and the “rescue of the loss … by IL-1β” value [1] was “partially rescued”.
“(+9GFP)-(GGGGS)4-(IGF-1): fusion protein of +9 GFP and human IGF-1 with flexible (GGGGS)4 linker, SEQ ID NO: 7” was tested, and the “rescue of the loss … by IL-1β” value (single 1 μM dose, 100 pg/ml IL-1β, 10-day experiment (FIG. 15B)) was “partially rescued”, the “rescue of the loss … by IL-1β” value (single 2 μM dose, 100 pg/ml IL-1β, 7-day experiment (FIG. 15A)) was “completely rescue” and the “rescue of the loss … by IL-1β” value [1] was “partially rescued”.
In the case of “IGF-1: free recombinant human IGF-1 (PeproTech), pro-anabolic growth factor used as the positive control”, the “rescue of the biosynthesis loss caused by human IL-1β” value (40 nM free IGF-1, 100 pg/ml human IL-1β) was “completely rescue”, the “rescue of the biosynthesis loss caused by human IL-1β” value (40 nM free IGF-1, 500 pg/ml and 1000 pg/ml human IL-1β) was “partial rescue” and the “biosynthesis rate versus untreated control” value (300 ng/ml IGF-1 + 10 pg/ml human IL-1β, both donors) was “surpassed the untreated control biosynthesis”. For the same substance, the “biosynthesis rate versus untreated control” value (300 ng/ml IGF-1 + 100 pg/ml human IL-1β, both donors) was “not statistically significantly different from the untreated control”, the “biosynthesis rate versus untreated control” value (300 ng/ml IGF-1 + 500 pg/ml or 1 ng/ml human IL-1β, donor) was “significantly lower biosynthesis compared to the untreated control” and the “rescue of biosynthesis loss” value (continuous free IGF-1 300 ng/ml, 100 pg/ml IL-1β, 7-day and 10-day experiments) was “complete rescue”. The “rescue of biosynthesis loss” value (continuous free IGF-1, human IL-1β 1 ng/ml) was “could not rescue”.
